Columns and labels:
[1] = literature report; cited from earlier work
[2] = Determination of the solubility in water; assay type: physicochemical; conditions: adjusted to pH 5-6 with sodium acetate solution, final dimethyl sulfoxide ≦1% if not a water-soluble salt
Method: EXAMPLE B Determination of the Solubility in Water […] If the measured substance is not in the form of a water-soluble salt, it was dissolved in the minimum amount of dimethyl sulfoxide and then diluted with water (final dimethyl sulfoxide concentration ≦1%), after which the pH was again adjusted.

Row | solubility in water [2] [%] | SMILES | effect in a model of circulatory failure [1]
1 | – | NC(=O)c1cccc(N)c1 [3-aminobenzamide] | protective effects
2 | < 0.01 | COc1ccc(-c2nc3cccc(C(N)=O)c3[nH]2)cc1 [NU 1076] | –
